Earlier results on 3 compounds are cited in publication PMC10537368, “Design, Synthesis, and Biological Evaluation of Novel 3-Cyanopyridone/Pyrazoline Hybrids as Potential Apoptotic Antiproliferative Agents Targeting EGFR/BRAF^V600E Inhibitory Pathways” (Molecules, 2023).

One series concerns the target BRAF^V600E (Homo sapiens, UniProt P15056, V600E). Particulars: cited from earlier work.
In a further series the test system is A-549 cancer. More on the design: method as in PMID 37240450. Particulars: read-out: IC50 against A-549 cancer; cited from earlier work.
The next series deals with Panc-1 cancer. More on the design: method as in PMID 36526595. The following applies: read-out: IC50 against Panc-1 cancer; cited from earlier work.
Another series concerns the target EGFR (Homo sapiens, UniProt P00533). Particulars: read-out: EGFR inhibition IC50; cited from earlier work.

Read-outs that look alike come from different tables or passages of the source.

Chain of BRAF^V600E (P15056 whole entry V600E): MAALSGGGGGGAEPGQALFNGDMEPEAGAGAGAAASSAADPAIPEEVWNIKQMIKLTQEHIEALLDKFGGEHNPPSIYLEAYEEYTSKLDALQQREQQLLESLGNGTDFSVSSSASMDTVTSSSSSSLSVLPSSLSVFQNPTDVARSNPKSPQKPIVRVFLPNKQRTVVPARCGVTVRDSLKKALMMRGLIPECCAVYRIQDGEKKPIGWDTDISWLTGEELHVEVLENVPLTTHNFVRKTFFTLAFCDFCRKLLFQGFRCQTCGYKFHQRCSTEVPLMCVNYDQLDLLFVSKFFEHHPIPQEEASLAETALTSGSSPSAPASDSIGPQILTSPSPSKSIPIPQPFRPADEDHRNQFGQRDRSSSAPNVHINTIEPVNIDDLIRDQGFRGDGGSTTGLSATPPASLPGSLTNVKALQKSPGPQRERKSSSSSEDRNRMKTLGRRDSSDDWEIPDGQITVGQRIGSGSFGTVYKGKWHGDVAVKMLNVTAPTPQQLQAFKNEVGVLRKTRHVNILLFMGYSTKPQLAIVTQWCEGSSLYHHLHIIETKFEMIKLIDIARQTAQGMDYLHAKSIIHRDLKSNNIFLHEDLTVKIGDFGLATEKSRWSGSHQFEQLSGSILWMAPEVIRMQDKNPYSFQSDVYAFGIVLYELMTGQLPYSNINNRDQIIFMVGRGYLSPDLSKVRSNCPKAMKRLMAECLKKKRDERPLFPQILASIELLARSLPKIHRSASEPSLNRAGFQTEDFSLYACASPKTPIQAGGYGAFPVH
Chain of EGFR (P00533 25-1210): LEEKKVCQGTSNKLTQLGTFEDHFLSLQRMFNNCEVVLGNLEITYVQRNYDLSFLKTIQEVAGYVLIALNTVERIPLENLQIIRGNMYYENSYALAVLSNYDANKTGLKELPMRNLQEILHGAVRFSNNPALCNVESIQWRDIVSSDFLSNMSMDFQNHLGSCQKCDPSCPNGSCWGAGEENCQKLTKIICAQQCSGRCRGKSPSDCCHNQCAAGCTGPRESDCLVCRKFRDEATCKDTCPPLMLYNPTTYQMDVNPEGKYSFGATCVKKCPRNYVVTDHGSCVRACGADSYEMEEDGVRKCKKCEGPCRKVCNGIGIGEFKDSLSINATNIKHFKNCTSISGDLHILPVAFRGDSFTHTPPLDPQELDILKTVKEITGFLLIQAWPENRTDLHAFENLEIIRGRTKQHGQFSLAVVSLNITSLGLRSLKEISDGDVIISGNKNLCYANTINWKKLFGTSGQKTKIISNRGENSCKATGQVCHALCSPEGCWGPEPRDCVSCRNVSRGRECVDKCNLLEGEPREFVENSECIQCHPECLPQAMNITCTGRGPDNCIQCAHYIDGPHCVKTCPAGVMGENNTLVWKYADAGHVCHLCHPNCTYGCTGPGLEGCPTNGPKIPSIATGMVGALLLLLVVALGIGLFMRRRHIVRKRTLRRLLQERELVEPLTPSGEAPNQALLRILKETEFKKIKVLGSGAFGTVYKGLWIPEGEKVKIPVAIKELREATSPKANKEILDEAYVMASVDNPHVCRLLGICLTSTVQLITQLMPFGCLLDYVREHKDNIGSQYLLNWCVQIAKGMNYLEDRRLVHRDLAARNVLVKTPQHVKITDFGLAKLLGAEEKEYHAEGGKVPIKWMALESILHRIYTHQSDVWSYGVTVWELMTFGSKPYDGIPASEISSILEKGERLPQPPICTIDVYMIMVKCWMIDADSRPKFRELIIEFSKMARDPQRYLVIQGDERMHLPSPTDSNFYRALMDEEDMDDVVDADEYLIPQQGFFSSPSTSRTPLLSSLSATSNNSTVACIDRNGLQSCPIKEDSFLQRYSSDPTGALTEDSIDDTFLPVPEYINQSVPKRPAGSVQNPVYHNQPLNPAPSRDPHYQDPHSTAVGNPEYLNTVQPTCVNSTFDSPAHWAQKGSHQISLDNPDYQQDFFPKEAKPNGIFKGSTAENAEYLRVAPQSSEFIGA

As to `COc1ccc(C2CC(c3ccc(OCC(=O)Nc4ccc(C5=NNC(c6ccc(OC)c(OC)c6)C5)cc4)cc3)=NN2)cc1` (stereo not shown) [Compound II], the IC50 at BRAF^V600E (read-out: BRAF^V600E IC50) was 93 nM; in the series on A-549 cancer it was 1000 nM.
Take `COc1ccc(/C=C/C(=O)c2ccc(NC(=O)Cn3c(-c4ccc(OC)c(OC)c4)cc(-c4ccc(OC)c(OC)c4)c(C#N)c3=O)cc2)cc1OC` [Compound I]: the half-inhibitory concentration (IC50) is 800 nM in the series on Panc-1 cancer, 89 nM on EGFR and 65 nM at BRAF^V600E (read-out: BRAF^V600E inhibition IC50).
On to `COc1cccc2c1C(=O)c1c(O)c3c(c(O)c1C2=O)C[C@@](O)(C(=O)CO)C[C@@H]3O[C@H]1C[C@H](N)[C@H](O)[C@H](C)O1` [doxorubicin], for which the IC50 in the series on Panc-1 cancer is 1000 nM; in the series on A-549 cancer, 1400 nM.
